This is an account of results in patent US20230025836A1, “EYE DROP COMPOSITION FOR PREVENTING OR TREATING EYE DISEASE” (Samjin Pharmaceutical Co., Ltd., priority 2019, published 2023).

Values after ≈ are worked out from the molar mass of the structure shown.

The series in a line: Solubility of the active material in water. It is filed as physicochemical. The source says:
In one embodiment, the eye drop may comprise the above-described solubilizing agent, so that an active ingredient thereof may be well dissolved and may not be precipitated even after long-term storage, thus resulting in better physical stability and chemical stability. In one embodiment, a concentration of the solubilizing agent in the eye drop may be 0.1 w/v % to 25.0 w/v %. In one embodiment, the type of the solubilizing agent may not be particularly limited, but may include, for example, at least one selected from the group consisting of surfactants, solvents, and mixtures thereof as follows. […] Thus, in one embodiment, the eye drop may comprise the solubilizing agent to dissolve 3-phenyl-4-propyl-1-(pyridin-2-yl)-1H-pyrazol-5-ol by 0.1% (1,000 μg/mL) to 2.0% (20,000 μg/mL).

Take `CCCc1c(-c2ccccc2)nn(-c2ccccn2)c1O` [3-phenyl-4-propyl-1-(pyridin-2-yl)-1H-pyrazol-5-ol]: the solubility was roughly 3.4 µg/mL (≈ 12.2 µM).
